Measured values from patent US6593365B1, “Diflunisal esters and related compounds” (The University of Queensland, priority 1997, dated 2003).
Several values for one entry are separate records, joined by “and”; a condition that tells them apart may be missing. Equal entries are not always repeated. Where two headings read alike, the source gives them in different places.

How the values were obtained:
[1] = system: ischaemic/reperfusion rat livers; assay: Ischaemic/reperfusion injury in rat livers (LDH release, bile production); parameters: species or system Female Sprague-Dawley rats; conditions: C is the ED50 molar dose
Description: Female Sprague-Dawley rats (220-250 g) were anaesthetised by interperitoneal injection of pentobarbital sodium (60 mg/kg, Boehringer Ingelhein). […] The bile duct was cannulated with a polyethylene tubing (PE-10, I.D. 0.28 mm; Clay Adams, New Jersey) and bile was collected into pre-weighed microcentrifuge tubes at 70 min intervals (in the middle of experiment and the end of experiment). The portal vein was then cannulated using a 16 G intravenous catheter and the liver was perfused via this cannula with 2% BSA Krebs-Henseleit bicarbonate buffer (pH 7.4) and oxygenated using a membrane oxygenator comprising of silastic tubing and ventilated with carbogen (95% O2/5% CO2). The perfusion system used was recirculating and employed a peristaltic pump (Cole-Parmer, Illinois).
Following a 10 min pre-ischaemia perfusion, the perfusion flow was stopped for 30 min at 37° C. with the liver being kept moist. At the end of this ischaemic phase, a known concentration of the aspirin analogue or diflunisal ester's solution (in 2% BSA Krebs-Henseleit buffer) was added into the perfusate prior to the perfusion being resumed for another 100 min. Outflow fractions were collected up to 140 min. A biochemistry autoanalyzer (Hitachi, model 747; Tokyo, Japan) was employed to determine the level of enzyme (LDH) release.
The degree of ischaemic/reperfusion injury was measured by calculating the area under the LDH release ([…]) versus time curve (AUC). […] The efficacy of each compound is expressed in terms of ED50 which represents the molar dose for 50% reduction of LDH release compared to the control. The comparison of bile production between the first stage of experiment (the first 70 min) and the second stage of experiment (the last 70 min) is also used as index of liver function during an experiment.

[2] = system: superoxide generated from xanthine oxidase plus xanthine reaction; assay: Xanthine oxidase plus xanthine-induced chemiluminescence; type: biochemical; parameters: dose or concentration left out as unconfirmed; conditions: X: CL induced by xanthine oxidase plus xanthine
Description: To clarify the role of aspirin analogues and diflunisal esters in free radicals scavenging, the Fenton's reagent was replaced by an artificial superoxide generating system in the CL inhibition studies. This cell-free system consisted of 100 μg/mL of xanthine oxidase (Sigma) plus 0.5 μM xanthine (Sigma) (Rosen and Klebanoff, 1976, J Clin Invest 58 50-60; Cheson et al., 1976, J Clin Invest 58 789-796).
(§1) CL measurements were always done in triplicate and Student's t-test used to assess the statistical significance of the difference between measurements.

[3] = system: OH. generated from Fenton's reaction; assay: Luminol-dependent chemiluminescence induced by Fenton's reagent; type: biochemical; parameters: unit of the concentration uncertain; conditions: F: CL induced by Fenton's reagent, n=3
Description: CL was measured with a luminometer (Model 1250; LKB Wallac, Finland) and recorded in millivolts (Cheung et al., 1984, supra).
Fenton's reagent (FeSO4 and H2O2) was used as a standard reaction mixture for the generation of OH. (Lai and Piette, 1979, Tetrahedron Lett. 775-778):
Fe^+++H2O2→Fe^++++OH.+OH (1)
The initial reaction mixture consisted of 20 μL of 3.8 mM FeSO4.7H2O, 20 μL of 5 mg/mL luminol (Sigma), and 2 mL of 1 mM phosphate buffer in a 3 mL polystyrene cuvette. Twenty microlitres of 320 mM H2O2 was added to initiate the Fenton's reaction.
A known concentration of the ethanolic (≲1%) aspirin analogue or diflunisal ester's stock solution was added to the 1 mM phosphate buffer to prepare solutions with a final concentration of 50 μM, 250 μM or 500 μM. Twenty microlitres of these test samples was added onto the cuvette which contained the initial reaction mixture. H2O2 was added to induce CL reaction. The luminol-dependent CL response was recorded in mV by a potentiometric recorder.
as §1

[4] = system: human platelet rich plasma; assay: Platelet aggregation induced by arachidonic acid; type: cell-based; conditions: compound 600 µM, 37° C., arachidonic acid 200 µM
Description: Platelet aggregation studies were carried out using a single channel Lumiaggregometer (Chrono-Log Company, Haverton, Pa.) at 37° C. using human platelet-rich and platelet-poor plasma. Platelet-rich plasma (PRP) with a platelet concentration of […] (measured with a Coulter counter) was prepared by centrifuging 3.8% citrated […] (1:9) at 1,500 rpm using a (Beckman) benchtop centrifuge at room temperature for 15 minutes. Platelet-poor plasma (PPP) was prepared by further centrifuging residual blood from platelet-rich plasma at 3,000 rpm for 30 minutes. Platelet-poor plasma was also confirmed b y Coulter counting for platelet content.
Platelet aggregation studies were preceded by pipetting 0.4 mL platelet-rich plasma into a stirred aggregometer tube and calibrate to 90% of recorder. Platelet-poor plasma was set to calibrate at 10% of recorder. Platelet aggregation was initiated by the addition of a arachidonic acid (Sigma) or ADP (Sigma).
10 mM solutions of each compound (TABLE 6) were prepared in 1 mL of normal saline solution (containing 4% BSA) before use. An aliquot (400 μL) of platelet-rich plasma was pipetted into a stirred aggregometer tube at 37° C. and 30 μL of test sample added simultaneously. This mixture was preincubated for varying period (3 to 45 minutes), then arachidonic acid (AA) was added (final conc.=200 μM) to initiate platelet aggregation. If no aggregation occurred, 20 μM ADP was added to confirm the vitality of the platelets (if the platelets are vital, ADP will induce this AA-test sample-plasma mixture to aggregate). This procedure is necessary to investigate whether the non-aggregation phenomenon is due to drug inhibition or simply due to inviable platelets (unable to respond to AA). The degree of aggregation was measure by calculating the area under the turbidimetric response curve (AUC).

[5] = In vitro non-enzymatic hydrolysis in Krebs-Henseleit buffer; type: physicochemical; conditions: for Hydrolysis rate constant (k): pH 7.4, 25° C., n=5; for half-life: pH 7.4, read-out: Half life (t1/2) (converted)
Description: These experiments were carried out both in Krebs-Henseleit buffer containing either no protein or 2% w/v BSA (bovine serum albumin, fraction V, Sigma) at pH 7.4 and 25±1° C.
Solutions of the derivatives in Krebs buffer (10 mL) was prepared in siliconised glass tubes. Each solution was sonicated for 5 minutes and centrifuged for 5 minutes (3000 g) at 25° C. to ensure maximum dissolution and to sediment any undissolved precipitate. About 7.5 mL of the supernatant was then transferred to a clean siliconised test tube and a 100 μL aliquot was removed and assayed. […] The rate of non-enzymatic hydrolysis (k) for each derivative was then estimated using the following equation: […]
where C1 is the concentration of the ester at any time (t), and C0 is the concentration of the ester at time zero. The half-life (t½) was determined using the formula: […]

[6] = system: in-situ perfused rat liver; assay: In-situ rat liver perfusion bolus studies, moments and dispersion model analysis (Example 3); type: in vitro ADME, Sprague-Dawley rats; conditions: for CV^2 of reference solute / F (hepatic availability) of reference solute / MTT of reference solute: statistical moments analysis, n=12; for MTTE (mean transit time of blood): MTTE=MTTW/(+1), =0.59
Description: Mature female Sprague-Dawley rats were obtained from the University of Queensland Animal Breeding Facility and weighed between 180-270 grams. The animals were given access to a standard laboratory diet prior to experiment. Rats were anaesthetised by interperitoneal injection of pentobarbital sodium (60 mg/kg, Boehringer Ingelhein). […] The bile duct was cannulated with PE10 (Clay Adams, New Jersey). 0.025 gm/L taurocholic acid (Sigma Co., USA.) was dissolved in perfusate to stimulate bile production. The portal vein was then cannulated using a 16 G intravenous catheter and the liver was perfused via this cannula with 2% BSA Krebs-Henseleit bicarbonate buffer (pH 7.4) and oxygenated using a silastic tubing lung ventilated with carbogen (95% O2/5% CO2). The perfusion system used was non-recirculating and employed a peristaltic pump (Cole-Parmer, Illinois).
The animal was placed in a temperature controlled perfusion cabinet at 37° C. Liver viability was assessed by oxygen consumption, bile flow, diflunisal esters' extraction and macroscopic appearance.
Perfusions were made at 30 mL/min in each liver. After a 10 minute perfusion stabilization period, injectate (50 μL) containing Evans Blue (3 mg/mL) and [^3H]-water in a saturated solution of the particular O-acyl diflunisal ester or pregenerated diflunisal (which was injected as parent compound) in 2% BSA Krebs-Henseleit buffer, was injected into the liver with outlet samples collected via a fraction collector over one minute.
Aliquots (100 μL) of pooled perfusate samples were taken for Evans Blue spectrophotometric analysis and [^3H]-water scintillation counting before adjusting pH. These pooled samples were then acidified to pH 2.0 by addition of 1 M HCl and extracted into 2.5 volumes of ether. […] The ether fraction was then removed and reduced to approximately 100 μL by evaporation under air and prepared as before for HPLC analysis. A known concentration of each buffer solution of ester was concurrently extracted and assayed with the perfusate samples to assess the degree of spontaneous hydrolysis occurring over the duration of the extraction procedure. This non-enzymatic hydrolysis was converted for in the analysis. The total recovery of diflunisal esters extracted using this technique was >90%.
The F, MTT and CV^2 for the diflunisal esters (or pregenerated DF) and the reference solutes (EB and [^3H]-water) were determined from the outflow concentration versus time profile using equation (1)-(4), with the assistance of the Moments Calculator 2.2 program for Macintosh computer developed by Robert Purves (Purves RD, 1994, J. Pharm. Sci. 83 202-205). [formula] [formula]
where Q is the perfusate flow rate, D is the dose of diflunisal esters administered. The area under the concentration-time curve (AUC) and the first moment curve (AUMC) were estimated by the trapezoidal rule integration with appropriate modification for tail (Mellick et al., 1996, submitted for publication). [formula]
The moment data was further examined using the dispersion model of hepatic elimination which defines F of an extracted solute by the equation (Roberts et al., 1990, J. Pharmacokin. Biopharm. 18 209-234): [formula]
a={square root over (1+4RNDN)} (6)
DN is the dispersion number which describes the spread of solute residence times in the liver following bolus input and equal half the normalized variance for a non-extracted reference indicator [formula]
RN is the efficiency number which characterises the elimination of solute by the liver and is defined by the equation: [formula]
(Gillette, 1971, Ann. N. Acad. Sci. 179 43-61)), and Q is the perfusate flow rate. If F for a solute and the CV^2 for a non-extracted reference solute (eg. EB) are known, we can solve for “a” using equation (5) and then for “RN” using equation (6).
The dispersion model expressions (Roberts et al., 1990) for MTT and CV^2 are presented in equations (8) and (9). [formula] [formula] […]

[7] = fitting to one-compartment dispersion model, individual curves 1-12 and Mean S.E. (n = 12)
[8] = fitting to one-compartment dispersion model, individual curves 1-12 and Mean S.E. (n = 12), listed as 3H -water

CCCCCCC(=O)Oc1ccc(-c2ccc(F)cc2F)cc1C(=O)O [Compound C7D, n-heptanoyldiflunisal]
log 1/C [1]: 4.52 | CL inhibition (%) [2]: 0.9 ± 0.1% | CL inhibition (%) ([3]; 0.5 (unit uncertain) compound, U = undetectable): 21.3 ± 3.7% | CL inhibition (%) ([3]; 2.5 (unit uncertain) compound): 57.3 ± 1.9% | CL inhibition (%) ([3]; 5 (unit uncertain) compound): 87.4 ± 3.4% | Platelet Aggregation (% of control) ([4]; preincubation 3 minutes): 97.5 ± 0.9 % of control | Platelet Aggregation (% of control) ([4]; preincubation 5 minutes): 96.3 ± 1.1 % of control | Platelet Aggregation (% of control) ([4]; preincubation 8 minutes): 91.4 ± 0.1 % of control | Platelet Aggregation (% of control) ([4]; preincubation 10 minutes): 91.1 ± 2.1 % of control | Platelet Aggregation (% of control) ([4]; preincubation 12 minutes): 90.8 ± 0.8 % of control | Platelet Aggregation (% of control) ([4]; preincubation 15 minutes): 89.7 ± 2.1 % of control | Platelet Aggregation (% of control) ([4]; preincubation 20 minutes): 77.3 ± 3.1 % of control | Platelet Aggregation (% of control) ([4]; preincubation 25 minutes): 57.3 ± 0.1 % of control | Platelet Aggregation (% of control) ([4]; preincubation 45 minutes): 0 % of control

CCCCCCC(=O)Oc1ccccc1C(=O)O [Compound C7SA, n-heptanoylsalicylic acid]
Hydrolysis rate constant (k) ([5]; Krebs-Henseleit buffer 0% BSA, U = Undetectable): 0.0052 ± 0.0032 hour^1 | Hydrolysis rate constant (k) ([5]; Krebs-Henseleit buffer 2% BSA): 0.0013 ± 0.0005 hour^1 | half-life ([5]; bovine, Krebs-Henseleit buffer with 2% w/v BSA): 22.2 days | half-life ([5]; protein-free Krebs-Henseleit buffer, Krebs-Henseleit buffer 0% BSA, first half life, t1/2=0.693/k, U = Undetectable): 5.55 days

Cc1cc(-c2ccc(/N=N/c3ccc4c(S(=O)(=O)O)cc(S(=O)(=O)O)c(N)c4c3O)c(C)c2)ccc1/N=N/c1ccc2c(S(=O)(=O)O)cc(S(=O)(=O)O)c(N)c2c1O [EB]
CV^2 of reference solute [6]: 1.15±0.11 | F (hepatic availability) of reference solute [6]: 0.95±0.04 | MTT of reference solute [6]: 9.04 ± 0.65 s

[3H]O[3H] [[^3H]-water]
MTTE (mean transit time of blood) ([6]; individual curves 1-12 and Mean S.E. (n = 12)): 7.36 ± 0.87 s | MTTE (mean transit time of blood) ([6]; individual curves 1-12 and Mean S.E. (n = 12), listed as 3H -water): 10.09 s and 9.52 s and 11.67 s and 13.40 s and 5.11 s and 4.99 s and 4.23 s and 4.95 s and 6.39 s and 6.33 s and 5.52 s and 6.08 s | DN (dispersion number) [6, 7]: 0.29±0.03 | MTTW (mean transit time of the whole liver) [6, 7]: 11.70 ± 1.39 s | DN (dispersion number) [6, 8]: 0.33 and 0.23 (3×) and 0.27 and 0.36 and 0.22 and 0.58 and 0.24 (2×) and 0.26 | MTTW (mean transit time of the whole liver) [6, 8]: 16.05 s and 15.15 s and 18.56 s and 21.31 s and 8.12 s and 7.94 s and 6.73 s and 7.87 s and 10.16 s and 10.07 s and 8.78 s and 9.66 s | DN (dispersion number) ([6]; from CV^2 of the moments analysis): 0.36±0.04 | CV^2 of reference solute [6]: 0.71±0.08 | F (hepatic availability) of reference solute [6]: 0.87±0.02 | MTT of reference solute [6]: 14.42 ± 0.79 s
